# In ChEMBL document CHEMBL4706535, “The development of Coronavirus 3C-Like protease (3CL) inhibitors from 2010 to 2020” (Eur J Med Chem, 2020):
# Key:
# [1] = Inhibition of SARS-CoV-2 3c-like protease; set-up: species or system Severe acute respiratory syndrome coronavirus 2
# [2] = Inhibition of SARS-CoV 3C-like protease (9970 to 10887 residues) expressed in Escherichia coli BL21(DE3) CodonPlus-RIL cells using Dabcyl-KTSAVLQSGFRKME-Edans fluorogenic peptide as substrate measured up to 60 mins by FRET method; set-up: species or system Severe acute respiratory syndrome-related coronavirus
# [3] = Inhibition of His-tagged SARS-CoV 3c-like protease using Abz-SVTLQSG-Tyr(NO2)R as substrate by fluorometric assay; set-up: species or system Severe acute respiratory syndrome-related coronavirus
# [4] = Inhibition of SARS-CoV-2 3c-like protease expressed in Escherichia coli by FRET-based cleavage assay; set-up: species or system Severe acute respiratory syndrome coronavirus 2
# [5] = Inhibition of SARS-CoV 3C-like protease (3241 to 3546 residues) expressed in Pichia pastoris GS115 using Dabcyl-KTSAVLQSGFRKME-Edans fluorogenic peptide as substrate measured for 18 mins by fluorescence method; set-up: species or system Severe acute respiratory syndrome-related coronavirus
# [6] = Inhibition of SARS-CoV 3C-like protease (3241 to 3546 residues) expressed in Pichia pastoris GS115 using Dabcyl-KTSAVLQSGFRKME-Edans fluorogenic peptide as substrate measured for 18 mins by Lineweaver-burk plot based Dixon plot analysis; set-up: species or system Severe acute respiratory syndrome-related coronavirus
smiles,measurement,setting,value
Oc1cc(O)cc(Oc2c(O)cc(O)c3c2Oc2c(O)cc(Oc4c(O)cc(O)cc4O)cc2O3)c1,IC50,[1],42.1 µM
C/C(=C\Cc1c(O)ccc(C(=O)/C=C/c2ccc(O)cc2)c1O)CCC(O)C(C)C (stereo unspecified),IC50,[2],22.2 µM
CCC(Cc1c(OC)ccc(C(=O)/C=C/c2ccc(O)cc2)c1O)OO (stereo unspecified),IC50,[2],11.4 µM
CC(=O)N[C@H](C(=O)N[C@H](C(=O)N[C@@H](CC(C)C)C(=O)N[C@@H](C[C@@H]1CCNC1=O)C(=O)Cn1[nH]c(=O)c2c([N+](=O)[O-])cccc2c1=O)[C@@H](C)OCc1ccccc1)C(C)C,IC50,[3],0.6 µM
Oc1cc(O)c(Oc2cc(O)cc(O)c2Oc2cc(-c3c(O)cc(O)cc3O)c(O)cc2O)c(O)c1,IC50,[1],22.5 µM
O=C[C@H](C[C@@H]1CCNC1=O)NC(=O)[C@H](Cc1cccc(F)c1)NC(=O)c1cc2ccccc2[nH]1,IC50,[4],0.04 µM
CC(=O)N[C@H](C(=O)N[C@H](C(=O)N[C@@H](CC(C)C)C(=O)N[C@@H](C[C@@H]1CCNC1=O)C(=O)Cn1[nH]c(=O)c2ccccc2c1=O)[C@@H](C)OCc1ccccc1)C(C)C,IC50,[3],2.7 µM
Oc1cc(O)cc(Oc2c(Oc3c(O)cc(O)cc3O)cc(O)c3c2Oc2c(O)cc(O)cc2O3)c1 [2-PHLOROECKOL],IC50,[1],13.3 µM
Oc1cc(O)cc(Oc2c(O)cc(O)c3c2Oc2c(O)cc(Oc4c(O)cc(Oc5c(O)cc(O)c6c5Oc5c(O)cc(O)cc5O6)cc4O)cc2O3)c1 [DIECKOL],IC50,[1],2.7 µM
Oc1cc(O)cc(Oc2c(O)cc(O)c3c2Oc2c(O)cc(O)cc2O3)c1 [ECKOL],IC50,[1],8.8 µM
O=C(O[C@@H]1Cc2c(O)cc(O)cc2O[C@@H]1c1cc(O)c(O)c(O)c1)c1cc(O)c(O)c(O)c1 [EPIGALOCATECHIN GALLATE],IC50,[5],73 µM
O=C(O[C@@H]1Cc2c(O)cc(O)cc2O[C@H]1c1cc(O)c(O)c(O)c1)c1cc(O)c(O)c(O)c1 [GALLOCATECHIN GALLATE],IC50,[5],47 µM
same,Ki,[6],25 µM
Oc1cc(O)cc(Oc2c(O)cc(O)c3c2Oc2c(O)cc4oc5c(Oc6cc(O)cc(O)c6)c(O)cc(O)c5c4c2O3)c1 [PHLOROFUCOFUROECKOL A],IC50,[1],16.7 µM
O=c1c(O)c(-c2ccc(O)c(O)c2)oc2cc(O)cc(O)c12 [QUERCETIN],IC50,[5],73 µM
COc1ccc(C(=O)/C=C/c2ccc(O)cc2)c(O)c1C/C=C(\C)CCC=C(C)C [XANTHOANGELOL F],IC50,[2],34.1 µM
